Test system: individual with symptoms indicative of lupus
Assay: Treatment of Lupus Erythematosus in an individual (Example 2)
Type: in vivo, human
Procedure: The individual is a person with symptoms including chronic fever, malaise, joint pains, myalgias, fatigue, indicative of lupus. The individual has previously been treated, largely unsuccessfully, with cyclophosphamides, corticosteroids and immunosuppressants.
The individual is treated for 1 to 60 days sequentially with BPI-1 administered at a dose of 4 mg/kg daily.

Compound	amelioration of lupus (severity and frequency of flares and their symptoms) (person, 4 mg/kg daily, 1 to 60 days sequentially)	results in equivalent or comparable trials with individuals exhibiting similar symptomatology (BCL6 inhibitors other than BPI, compared with BPI-1 treatment of lupus)
NH2-G(RRRQRRKKR)GG(RGIEHAAR)GG(DIM)G(EW)G(NEIF)G(AIA)G(FL)G-OH [BPI-1]	long-lasting amelioration of lupus with a reduction in the severity and frequency of flares and their symptoms	
O=C(O)CC(C(=O)O)N1C(=O)/C(=C2/C(=O)Nc3ccc(Br)cc32)SC1=S (centres unmarked) [79-6]		Equivalent results are obtainable
